From the NIST ThermoML archive (doi:10.1021/je400408w)

Experiment: molar heat capacity at constant pressure; xn = mol fraction of the nth substance listed
Details: 100 kPa, Liquid

O=C1CCCN1 [2-pyrrolidinone] + Cc1ccc(Cl)cc1
x1 = 1
Details | molar heat capacity at constant pressure [J/K/mol]
293.15 K | 168.36
298.15 K | 169.55
303.15 K | 171.18

Cc1cccc(Cl)c1 [3-chlorotoluene] + O=C1CCCN1
molar heat capacity at constant pressure [J/K/mol]
Details | 293.15 K | 298.15 K | 303.15 K
x2 = 0 | 175.21 | 176.46 | 177.67
x2 = 0.0398 | 175.59 | 176.89 | 178.18
x2 = 0.0798 | 176.05 | 177.3 | 178.65
x2 = 0.1089 | 176.37 | 177.6 | 179.06
x2 = 0.1443 | 176.74 | 178.08 | 179.55
x2 = 0.1853 | 177.1 | 178.48 | 179.99
x2 = 0.2234 | 177.49 | 178.84 | 180.42
x2 = 0.2613 | 177.74 | 179.25 | 180.77
x2 = 0.3095 | 178.12 | 179.52 | 181.15
x2 = 0.3452 | 178.21 | 179.69 | 181.37
x2 = 0.3865 | 178.3 | 179.9 | 181.5
x2 = 0.4432 | 178.35 | 179.92 | 181.58
x2 = 0.4836 | 178.22 | 179.73 | 181.43
x2 = 0.5213 | 177.98 | 179.53 | 181.21
x2 = 0.5643 | 177.56 | 179.17 | 180.87
x2 = 0.6074 | 177.17 | 178.68 | 180.45
x2 = 0.6408 | 176.64 | 178.24 | 179.95
x2 = 0.6853 | 175.94 | 177.56 | 179.23
x2 = 0.7214 | 175.28 | 176.81 | 178.55
x2 = 0.7654 | 174.4 | 175.89 | 177.62
x2 = 0.8069 | 173.44 | 174.91 | 176.65
x2 = 0.8453 | 172.56 | 173.94 | 175.71
x2 = 0.8812 | 171.61 | 172.99 | 174.68
x2 = 0.9203 | 170.57 | 171.93 | 173.57
x2 = 0.9564 | 169.6 | 170.88 | 172.55

Cc1ccc(Cl)cc1 [4-chlorotoluene] + CN1CCCC1=O
molar heat capacity at constant pressure [J/K/mol]
Details | 293.15 K | 298.15 K | 303.15 K
x2 = 0 | 175.66 | 177.95 | 180.37
x2 = 0.0671 | 176.7 | 178.71 | 180.9
x2 = 0.1128 | 177.44 | 179.35 | 181.36
x2 = 0.1487 | 178.03 | 179.8 | 181.81
x2 = 0.1876 | 178.67 | 180.38 | 182.29
x2 = 0.2219 | 179.21 | 180.88 | 182.72
x2 = 0.2615 | 179.85 | 181.44 | 183.16
x2 = 0.2987 | 180.33 | 181.87 | 183.61
x2 = 0.3328 | 180.77 | 182.28 | 183.94
x2 = 0.3728 | 181.29 | 182.72 | 184.22
x2 = 0.4137 | 181.62 | 183.02 | 184.44
x2 = 0.4512 | 181.89 | 183.22 | 184.54
x2 = 0.4928 | 182.07 | 183.31 | 184.53
x2 = 0.5316 | 182.09 | 183.2 | 184.46
x2 = 0.5773 | 181.94 | 182.93 | 184.08
x2 = 0.6154 | 181.61 | 182.53 | 183.54
x2 = 0.6542 | 181.16 | 182.01 | 182.89
x2 = 0.6927 | 180.46 | 181.23 | 182.04
x2 = 0.7326 | 179.54 | 180.21 | 180.88
x2 = 0.7732 | 178.32 | 178.9 | 179.49
x2 = 0.8142 | 176.8 | 177.33 | 177.84
x2 = 0.8315 | 176 | 176.54 | 177.12
x2 = 0.8715 | 174.08 | 174.58 | 175.13
x2 = 0.9153 | 171.57 | 172.16 | 172.62
x2 = 0.9534 | 169.04 | 169.62 | 170.26

Cc1ccccc1Cl [2-chlorotoluene] + O=C1CCCN1
molar heat capacity at constant pressure [J/K/mol]
Details | 293.15 K | 298.15 K | 303.15 K
x2 = 0 | 176.43 | 178.21 | 180.01
x2 = 0.0426 | 177.32 | 179.22 | 181.34
x2 = 0.0815 | 178.2 | 180.1 | 182.4
x2 = 0.1243 | 179.12 | 181.15 | 183.61
x2 = 0.1654 | 180 | 182.08 | 184.67
x2 = 0.2067 | 180.7 | 182.94 | 185.64
x2 = 0.2432 | 181.17 | 183.62 | 186.37
x2 = 0.2851 | 181.73 | 184.27 | 186.97
x2 = 0.3215 | 182.2 | 184.63 | 187.49
x2 = 0.3645 | 182.46 | 184.96 | 187.88
x2 = 0.4088 | 182.43 | 185.2 | 188.02
x2 = 0.4426 | 182.43 | 185.07 | 187.93
x2 = 0.4854 | 182.08 | 184.93 | 187.72
x2 = 0.5231 | 181.74 | 184.55 | 187.37
x2 = 0.5612 | 181.22 | 183.98 | 186.88
x2 = 0.5987 | 180.54 | 183.29 | 186.2
x2 = 0.6316 | 179.75 | 182.48 | 185.46
x2 = 0.6724 | 178.85 | 181.51 | 184.4
x2 = 0.7143 | 177.56 | 180.26 | 183.11
x2 = 0.7543 | 176.48 | 178.86 | 181.78
x2 = 0.796 | 175.15 | 177.45 | 180.2
x2 = 0.8342 | 173.85 | 176.13 | 178.66
x2 = 0.8724 | 172.53 | 174.47 | 177.02
x2 = 0.9088 | 171.32 | 173.04 | 175.4
x2 = 0.9426 | 170.19 | 171.72 | 173.87
